Data set [1] relates to NCI-H1373 cancer cells. Description: NCI-H1373 cancer cell growth inhibition (CellTiter-Glo, 144 hours). The conditions noted are these: Homo sapiens, 144 hours culture. The data set is classed as cell-based. In short, it runs like this:
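Cells seeded at 3500/well and dosed after 24 h with a 10-point series from 10 μM down to 0.0005 μM (0.2% DMSO). After 144 h, viability was read by CellTiter-Glo luminescence. Growth inhibition was calculated relative to day-0 and solvent-control RLU, and IC50 was obtained from dose-response curve fits.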
Background: In ATP-based viability assays light output follows the ATP content of the culture.

Data set [2] in a line: Pharmacokinetic study in mice (IV and oral gavage). The following applies: for AUClast (plasma exposure) relative to RBN-2397 / drug plasma half-life (T1/2) relative to RBN-2397 / drug clearance (CL(iv)) relative to RBN-2397 / maximum blood concentration (Cmax) relative to RBN-2397: mice; for drug plasma half-life (T1/2) relative to RBN-2397 / drug clearance (CL(iv)) relative to RBN-2397: intravenous administration; for drug clearance (CL(iv)) relative to RBN-2397: fraction of RBN-2397 value; for clearance / bioavailability / AUC(0-t) / half-life / Cmax: mouse, plasma, male CD-1 mice; for clearance: read-out: CL(iv) (converted); for bioavailability: oral bioavailability, PO 10 mg/kg vs IV 3 mg/kg. The data set is classed as in vivo, CD-1 mice. Here is the method: Formulation of intravenous and oral gavage administration solutions: The compounds to be tested were dissolved in solutions formulated with 5% DMSO, 10% solutol HS15, and 85% saline.
Dosage (measured as the amount of compound in the administration solution (mg)/mouse body weight (kg)): 3 mg/kg intravenously (IV), 10 mg/kg oral gavage (PO).
A total of 18 CD-1 mice (Shanghai Jihui Experimental Animal Feeding Co., LTD.), male, weight 28-31 g, were fasted for 12 hours and randomly divided into 2 groups (Group A and Group B) with 9 mice in each group. Animals in Group A were given the compound solution by oral gavage at the dose of 10 mg/kg. Animals in Group B were given the compound solution by tail vein injection at the dose of 3 mg/kg, and blank blood was taken before administration. About 110 μL of venous blood was taken from animals in Group A at 0.25 h, 0.5 h, 1 h, 2 h, 4 h, 8 h, and 24 h after administration. About 110 μL of venous blood was taken from animals in Group B at 0.083 h, 0.25 h, 0.5 h, 1 h, 2 h, 4 h, 8 h, and 24 h after administration, and all were placed in test tubes with heparin, centrifuged, and plasma was collected and stored at −70° C. for testing.
AUClast represents the area under the drug time curve from the beginning of the administration time to the last point, that is, the area surrounded by the blood drug concentration curve to the time axis. CL(iv) represents the drug clearance of intravenous administration; T1/2 represents the plasma half-life of the drug, which refers to the time required for half of the drug to be eliminated from the body. Cmax represents the maximum concentration of the drug in the plasma after administration. F % indicates oral bioavailability of the drug.

The target of data set [3] is T1, recombinant human PARP7 protein (Homo sapiens, UniProt Q7Z3E1).
T1 construct: purchased Abcam ab271651
T1 sequence (Q7Z3E1 1-657): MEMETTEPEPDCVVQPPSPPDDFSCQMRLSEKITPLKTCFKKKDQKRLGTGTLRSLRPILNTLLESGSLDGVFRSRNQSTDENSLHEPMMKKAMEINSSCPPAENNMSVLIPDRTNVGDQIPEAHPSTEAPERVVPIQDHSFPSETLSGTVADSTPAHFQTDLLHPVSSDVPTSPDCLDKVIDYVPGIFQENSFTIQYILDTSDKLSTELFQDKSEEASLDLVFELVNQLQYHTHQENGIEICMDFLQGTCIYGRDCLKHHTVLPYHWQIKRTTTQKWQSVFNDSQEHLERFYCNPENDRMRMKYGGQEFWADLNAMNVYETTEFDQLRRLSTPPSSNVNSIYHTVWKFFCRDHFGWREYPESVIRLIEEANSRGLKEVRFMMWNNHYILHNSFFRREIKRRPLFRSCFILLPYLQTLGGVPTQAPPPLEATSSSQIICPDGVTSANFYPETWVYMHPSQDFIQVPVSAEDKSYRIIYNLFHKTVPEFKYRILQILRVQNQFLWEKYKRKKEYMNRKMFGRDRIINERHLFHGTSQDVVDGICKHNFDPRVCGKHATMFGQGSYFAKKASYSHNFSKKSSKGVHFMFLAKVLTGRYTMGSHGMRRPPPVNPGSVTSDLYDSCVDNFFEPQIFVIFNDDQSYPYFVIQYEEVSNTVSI
Description: Inhibition of PARP7 biological enzyme activity (histone-coated plate, Biotin-NAD+, chemiluminescence). The conditions noted are these: recombinant human PARP7, Biotin-NAD+ substrate. In kind it is biochemical. The gist of the method: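 Recombinant human PARP7 was preincubated with compound (1000–0.05 nM final) on histone-coated plates for 15 min at 25 °C, then reacted with Biotin-NAD+ for 60 min at 25 °C. Ribosylation was detected by streptavidin-HRP chemiluminescence. IC50 was fitted from % inhibition relative to controls.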

Usually IC50 stands for the midpoint of a concentration-inhibition curve. As a reminder, the bioavailability is the share of a dose that reaches the circulation, judged against a reference dose that is usually intravenous. High values mean good availability, low ones poor availability. The AUC(0-t) is the area under the concentration-time curve up to a stated or last time point. What is called half-life is the time needed for the level to fall by half in the phase considered. High values mean slow decline, low ones rapid decline. For orientation: Cmax means the peak of the concentration-time curve. Turning to `C[C@@H](CONC(=O)CC1=CCN(c2ncc(C(F)(F)F)cn2)CC1)Nc1cn[nH]c(=O)c1C(F)(F)F` [Example 25, (S)—N-(2-((6-oxo-5-(trifluoromethyl)-1,6-dihydropyridazin-4-yl)amino)propoxy)-2-(1-(5-(trifluoromethyl)pyrimidin-2-yl)-1,2,3,6-tetrahydropyridin-4-yl)acetamide], in data set [1], the IC50 is under 0.1 µM. Besides, the “AUClast (plasma exposure) relative to RBN-2397” value in data set [2] (3 mg/kg intravenous injection) is “about 3.8 times”. In data set [2], the “drug plasma half-life (T1/2) relative to RBN-2397” value worked out at 27.8 times, the “drug clearance (CL(iv)) relative to RBN-2397” value was “about ⅕” and the bioavailability was 75.9%. Besides, in data set [2] (IV 3 mg/kg), the clearance was 17.8 mL/min/kg, the AUC(0-t) turned out to be 2780 ng·h/mL and the half-life was 5.55 h. Further, in data set [2] (PO 10 mg/kg), the AUC(0-t) was found to be 7060 ng·h/mL and the concentration peaked (Cmax) at 7230 ng/mL. Besides, in data set [2] (oral gavage 10 mg/kg), the “AUClast (plasma exposure) relative to RBN-2397” value is given as about 12.1 times and the “maximum blood concentration (Cmax) relative to RBN-2397” value amounted to 10.6 times.
With `C[C@@H](COCCC(=O)N1CCN(c2ncc(C(F)(F)F)cn2)CC1)Nc1cn[nH]c(=O)c1C(F)(F)F` [RBN-2397, reference compound], in data set [2] (IV 3 mg/kg), the clearance was 68.3 mL/min/kg, the AUC(0-t) was 732 ng·h/mL and the half-life was 0.2 h. The same molecule displayed a bioavailability in data set [2] of 23.9%. In data set [2] (PO 10 mg/kg), this molecule registered an AUC(0-t) of 582 ng·h/mL and a Cmax of 682 ng/mL.
As for `C[C@@H](CONC(=O)CC1CCN(c2ncc(C(F)(F)F)cn2)CC1)Nc1cn[nH]c(=O)c1C(F)(F)F` [Example 17, (S)—N-(2-((6-oxo-5-(trifluoromethyl)-1,6-dihydropyridazin-4-yl)amino)propoxy)-2-(1-(5-(trifluoromethyl)pyrimidin-2-yl)piperidin-4-yl)acetamide], in data set [1], the IC50 was under 0.1 µM. In data set [2] (3 mg/kg intravenous injection), the “AUClast (plasma exposure) relative to RBN-2397” value is “about 4.4 times”. Further, in data set [2], the “drug plasma half-life (T1/2) relative to RBN-2397” value turned out to be 8 times, the “drug clearance (CL(iv)) relative to RBN-2397” value is “about ⅕” and the bioavailability amounted to 61.3%. In addition, in data set [2] (IV 3 mg/kg), the clearance is 15.5 mL/min/kg, the AUC(0-t) was determined as 3210 ng·h/mL and the half-life was 1.62 h. In data set [2] (PO 10 mg/kg), this molecule registered an AUC(0-t) of 6550 ng·h/mL and a Cmax of 5320 ng/mL. In addition, in data set [2] (oral gavage 10 mg/kg), the “AUClast (plasma exposure) relative to RBN-2397” value is “about 11.3 times” and the “maximum blood concentration (Cmax) relative to RBN-2397” value came to 7.8 times. Also, the IC50 in data set [3] was under 0.01 µM.

Source of the values: US20240336596A1, “PARP7 INHIBITOR AND USE THEREOF” (NOVOSTAR PHARMACEUTICALS, LTD., priority 2022, published 2024).
